This note sets out measurements from ChEMBL document CHEMBL1149058, “Further Chemical Studies of Mediterranean and Atlantic Hypselodoris Nudibranchs: A New Furanosesquiterpenoid from Hypsdodoris webbi” (J Nat Prod, 1994).

One series concerns Artemia salina. Description: Toxicity against Artemia salina. The settings on record: in vivo. The series is classed as organism-based.
The subject of a further series is Gambusia affinis. Description: Ichthyotoxicity against Gambusia affinis at 10 ppm within 24 hrs. The following applies: in vivo. In kind it is organism-based.

Each structure is given as a SMILES string.

`CC1=C[C@@H]2Cc3occc3C(C)(C)[C@@H]2C=C1`: the LD50 with Artemia salina is reported as 1.52 ppm. Besides, the Activity result in the series on Gambusia affinis is “Toxic”.
